Values quoted from earlier work in patent publication US20260345654A1, “2,8-DIHYDROXYQUINOLINE GLUCURONIDE DERIVATIVES WITH ENHANCED PROPERTIES FOR USE AS ANTICANCER, ANTIVIRAL, ANTIMICROBIAL, AND OTHER THERAPEUTIC APPLICATIONS” (priority 2023, published 2026).

Tests used:
[1] = Japanese population, 1970's; cited from earlier work
[2] = system: tumor cells; settings: addition of docosahexaenoic acid (DHA); Ding 2006; cited from earlier work
[3] = system: viral attachment to ACE receptor; settings: COVID 19; copper chelation not required; cited from earlier work
[4] = system: cancer cells; settings: Zhai 2010; Oliveri 2012; cited from earlier work
[5] = system: A2780, A549 and MDA-MB-231 cells; settings: addition of Cu^+2 to the media; cited from earlier work

## Oc1c(I)cc(Cl)c2cccnc12 [CQ, 5-chloro-7-iodo-8-hydroxyquinoline]
[1]
  serious side effect: CQ-associated subacute myelo-optic neuropathy
[2]
  anticancer activity with omega fatty acids: increase synergistically
[3]
  antiviral activity mechanism: blocking viral attachment to ACE receptor
[4]
  effect of copper on anti-cancer activity: enhancer or prerequisite of the anti-cancer activity
[5]
  cytotoxicity change with addition of Cu^+2: significantly increased the cytotoxicity
